Measurements taken from patent US12295937B2, “Psychoactive medicines and their use for treating psychiatric and neurological conditions and disorders” (Transcend Therapeutics, Inc., priority 2021, dated 2025).
Where two headings read alike, the source gives them in different places.

What was measured:
NET [1] = biological target: T1, NET (Rattus norvegicus, UniProt Q63380); assay: [3H]NE uptake inhibition in rat brain synaptosomes; settings: read-out: Reuptake inhibition: IC50; rat brain synaptosomes
[2] = Rat Forced Swim Test (FST); assay type: in vivo; settings: for Reduction in immobility: single dose 30 min before test
Excerpt: The Forced Swim Test (FST) is a classic, and the most used preclinical behavioral assay to screen compounds with antidepressant-like activity and has high predictive and face validity (Porsolt et al. (1977) Nature 266:730; Borsini and Meli (1988) Psychopharmacology 94:147). The premise of the FST is that when rats are placed into a cylinder filled with water, they will initially try to escape, but over time will become immobile. This increased immobility reflects behavioral despair, modeling a depressive-like state.
Forced Swim Test (EST): In the FST trial, rats were placed in a circular plexiglass container filled with water, with no means of escape. Water temperature was maintained at 22-25° C. and changed for every animal. After an acclimation period, rats were timed for inactivity (failure to struggle), activity, swim time and climbing time. Day 1 consisted of a 15 min acclimation trial, and Day 2 (24 h later) consisted of the 5 min test. A time sampling procedure was employed where animals were observed every 5 sec and scored for immobility, swimming, or climbing. Fluoxetine (10 mg/kg, IP, Sigma Aldrich) or 0.9% sterile saline vehicle (vehicle 3× group) were administered 23.5, 5, and 1 h before testing in the FST. […] The experimenter was blinded to treatment.
Forced Swim Test: In the FST trial, rats were placed in a circular plexiglass container filled with water, with no means of escape. Water temperature was maintained at 22-25° C. and changed for every animal. After an acclimation period, rats were timed for inactivity (failure to struggle), activity, swim time and climbing time. Day 1 consisted of a 15 min acclimation trial, and Day 2 (24 h later) consisted of the 5 min test. A time sampling procedure was employed where animals were observed every 5 sec and scored for immobility, swimming, or climbing. Fluoxetine (10 mg/kg, IP, Sigma Aldrich) or 0.9% sterile saline vehicle (vehicle 3× group) were administered 23.5, 5, and 1 h before testing in the FST. 2C-B (2.5, 10, or 20 mg/kg, IP, Cayman Chemical) or 0.9% saline vehicle (vehicle 1× group) were administered 30 min prior to FST testing. The experimenter was blinded to treatment.
Drug Treatment: Fluoxetine (10 mg/kg, IP, Sigma Aldrich) or 0.9% sterile saline vehicle were administered 23.5, 5, and 1 h before testing in the FST. […] Control animals received fluoxetine alone, methylone alone, or saline vehicle.
Forced Swim Test: In the FST trial, rats were placed in a circular plexiglass container filled with water, with no means of escape. Water temperature was maintained at 22-25° C. and changed for every animal. After an acclimation period, rats were timed for inactivity (failure to struggle), activity, swim time and climbing time. The experimenter and scorer were blind to treatment group. Day 1 consisted of a 15 min acclimation trial, and Day 2 (24 h later) consisted of the 5 min test. A time sampling procedure was employed where animals were observed every 5 sec and scored for immobility, swimming, or climbing.
The FST was performed and scored by an experimenter blind to treatment group according to standard protocols and based on a “modified FST” procedure (Slattery and Cryan (2012) Nat Protoc, 7:1009). Briefly, rats were placed in a circular plexiglass container (29.2 cm diameter, 49.5 cm height) filled with water to a depth of 30 cm so rats could not support themselves by touching the bottom of the tank. Water was maintained at 22-25° C. and was changed for every animal. Day 1 (Training) consisted of a 15 min acclimation trial, and Day 2 (Testing, 24 h later) consisted of the 5 min test. A time sampling procedure was employed where animals were observed every 5 seconds for the duration of the test session (60 counts or 5 minutes) and scored for immobility (defined as the failure to struggle), swimming (defined as a circular movement around the tank), or climbing (defined as an upwards escape behavior). […]

DAT = DAT (Rattus norvegicus, UniProt P23977); assay: [3H]DA release from rat brain synaptosomes; assay type: biochemical; parameters: from tissue; synaptosomes for uptake and release; settings: rat brain synaptosomes; read-out: Neurotransmitter release: EC50
Method: (§1) Test compounds and synaptosomes were prepared as described for uptake inhibition assays. Synaptosomes treated with [^3H]5-HT, [^3H]DA or [^3H]NE were loaded onto filter chambers containing GF/C filters and placed in a superfusion system. Oxygenated Krebs buffer was perfused through the chambers at a rate of 1.5 mL/minute at 35° C. using either an 8-channel or a 12-channel peristaltic pump. Trapped air bubbles were removed from the filters prior to collecting fractions to ensure an even flow over the synaptosomal bed. After a superfusion period of 45 minutes, 2 basal fractions were collected followed by 6 fractions following the addition of the test drug. […] Scintillation cocktail was added, and the filters counted to determine residual radioactivity. Drug-evoked release of neurotransmitter was calculated by subtracting the average of the two basal fractions (collected prior to the drug addition), from the four fractions collected in the presence of drug. The drug-evoked release was then expressed as a percentage of the basal release. Potassium-evoked release was calculated by subtracting the average of two fractions collected prior to the addition of high KCl buffer from that in the two fractions following addition of high KCl buffer. Potassium-stimulated release was calculated as a percentage of basal release. […]

[3] = rats, intraperitoneal; cited from earlier work
NET [4] = biological target: T1, NET; assay: [3H]NE release from rat brain synaptosomes; assay type: biochemical; parameters: from tissue; synaptosomes for uptake and release; settings: rat brain synaptosomes; read-out: Neurotransmitter release: EC50
Method: as §1

[5] = Rat plasma pharmacokinetics by administration route; assay type: in vivo; settings: male, SD
Excerpt: Plasma was collected 0.25, 0.5, 1-, 2-, 4-, and 8-hours post-dose.

T1 sequence (Q63380 1-617): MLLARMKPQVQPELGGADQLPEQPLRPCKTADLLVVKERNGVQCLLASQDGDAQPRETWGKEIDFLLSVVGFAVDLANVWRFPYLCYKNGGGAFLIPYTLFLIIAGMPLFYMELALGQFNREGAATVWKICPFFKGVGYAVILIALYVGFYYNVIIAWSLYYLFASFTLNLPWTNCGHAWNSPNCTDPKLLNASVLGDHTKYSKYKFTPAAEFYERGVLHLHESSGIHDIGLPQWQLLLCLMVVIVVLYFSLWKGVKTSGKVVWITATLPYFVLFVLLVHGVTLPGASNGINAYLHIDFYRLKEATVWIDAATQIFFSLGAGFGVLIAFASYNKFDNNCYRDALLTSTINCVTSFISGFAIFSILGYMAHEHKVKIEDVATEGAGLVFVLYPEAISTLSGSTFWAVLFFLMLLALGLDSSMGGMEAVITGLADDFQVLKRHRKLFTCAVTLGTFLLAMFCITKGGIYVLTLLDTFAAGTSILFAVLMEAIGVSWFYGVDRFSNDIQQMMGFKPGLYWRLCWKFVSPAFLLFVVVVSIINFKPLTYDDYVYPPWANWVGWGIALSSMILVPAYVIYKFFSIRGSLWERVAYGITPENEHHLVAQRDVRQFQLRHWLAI
Chain of DAT (P23977 whole entry, the tested form may be a part): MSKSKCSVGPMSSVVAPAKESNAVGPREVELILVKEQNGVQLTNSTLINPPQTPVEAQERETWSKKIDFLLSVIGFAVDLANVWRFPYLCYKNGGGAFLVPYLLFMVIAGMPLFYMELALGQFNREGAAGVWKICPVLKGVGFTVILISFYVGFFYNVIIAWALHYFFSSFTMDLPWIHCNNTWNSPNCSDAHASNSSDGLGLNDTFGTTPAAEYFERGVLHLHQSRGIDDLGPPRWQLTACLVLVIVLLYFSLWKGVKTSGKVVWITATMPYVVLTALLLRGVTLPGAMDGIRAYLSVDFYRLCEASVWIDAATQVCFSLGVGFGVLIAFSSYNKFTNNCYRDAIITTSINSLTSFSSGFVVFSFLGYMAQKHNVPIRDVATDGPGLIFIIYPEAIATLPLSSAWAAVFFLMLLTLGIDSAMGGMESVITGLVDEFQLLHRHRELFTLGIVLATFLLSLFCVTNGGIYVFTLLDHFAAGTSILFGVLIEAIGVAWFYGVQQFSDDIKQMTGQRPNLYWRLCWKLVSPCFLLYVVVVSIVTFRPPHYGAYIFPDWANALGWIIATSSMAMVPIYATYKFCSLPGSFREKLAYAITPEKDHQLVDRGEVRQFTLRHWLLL

## CNC(C)C(=O)c1ccc2c(c1)OCO2 (centres unmarked) [Methylone, 3,4-methylenedioxy-N-methylcathinone]
NET [1]
  IC50: 130 nM
[2]; 15 mg/kg IP
  Reduction in immobility: 99%
[2]; 15 mg/kg PO, 2 hours before test
  Antidepressant-like effect vs. vehicle: significant antidepressant-like effect
[2]; 30 mg/kg IP
  Reduction in immobility: 96%
[2]; Methylone 5 mg/kg IP after three prior doses of fluoxetine 10 mg/kg
  Reduced immobility vs. vehicle: 62%
[2]; Methylone alone 5 mg/kg IP (Example 8)
  Reduced immobility vs. vehicle: 71%
[2]; doses as worded
  Climbing behavior: significantly increased climbing behavior
  Swimming behavior: Mid and high doses of methylone significantly increased swimming
[2]; doses as worded, listed as methylone
  Climbing behavior: Climbing was only increased at the lowest dose of methylone
[2]; four […] IP doses 20.5, 8.5, 4.5, 0.5 h before test
  Antidepressant-like effect of multiple lower doses: significant antidepressant-like effects
[2]; single dose 5, 10, 15, 20 and 30 mg/kg IP, 30 min before test
  Immobility vs. saline vehicle: significantly reduced immobility
DAT
  EC50: 4.79 µM
[3]
  half-life: 1 to 2 h
NET [4]
  EC50: 330 nM
[5]; IM 15 mg/kg
  AUC(0-inf): 4610 ng·h/mL
  Cmax: 5400 ng/mL
  half-life: 44.4 min
[5]; IM 20 mg/kg
  AUC(0-inf): 6370 ng·h/mL
  Cmax: 5920 ng/mL
  half-life: 42 min
[5]; IP 15 mg/kg
  AUC(0-inf): 2590 ng·h/mL
  Cmax: 1250 ng/mL
  half-life: 56.1 min
[5]; PO 15 mg/kg
  AUC(0-inf): 2290 ng·h/mL
  Cmax: 552 ng/mL
  half-life: 136 min
[5]; SC 15 mg/kg
  AUC(0-inf): 4330 ng·h/mL
  Cmax: 3650 ng/mL
  half-life: 49.2 min
[5]; SC 20 mg/kg
  AUC(0-inf): 5960 ng·h/mL
  Cmax: 4320 ng/mL
  half-life: 52.2 min
